Assay results reported in patent publication US20170247409A1, “ABIETANE-TYPE DITERPENOIDS” (UNIVERSITY OF HELSINKI, priority 2014, published 2017).
pIC50: −log10 of the molar value. ≈ marks a conversion by molar mass, not a printed value. Where “and” joins values, the source holds several entries; their conditions need not be identical. Equal values may be shown once. Read-outs that look alike come from different tables or passages of the source.

What was measured:
S. aureus biofilm = settings: Fallarero et al, 2013; cited from earlier work
[1] = test system: S. aureus ATCC 25923 biofilms; assay: Anti-biofilm viability assay with redox dye, pre- and post-exposure, S. aureus ATCC 25923 biofilms; assay type: cell-based, Staphylococcus aureus; settings: for inhibition at 400 µM: ATCC25923; for % inhibition, Post-biofilm formation: at 400 μM, existing biofilms
single-cell bacteria = assay: Antibacterial activity (MIC) against single-cell (planktonic) bacteria; assay type: cell-based; settings: Staphylococcus aureus, in the absence of biofilms, strain not stated
Source text: We selected six of the active compounds in the post-exposure assays namely, compounds 20, 21, 22, 25, 31 and 32 for the follow-up studies. […] In this mode of the assay, the interaction of the compounds occurs initially with single-cell bacteria (that is, a planktonic solution) before biofilms are formed. Therefore, we tested additionally if the compounds could exert antibacterial activity against single-cell bacteria, in the absence of biofilms. Based solely on conventional MIC and MBC values, antibacterial activities against single-cell bacteria were also high for the derivatives. […] The antibacterial activity order 22>21>25>31>20>32 correlated very well with the measured activity in preventing biofilm formation.

S. aureus Newman = assay: Anti-biofilm potency against S. aureus Newman biofilms; assay type: cell-based, Staphylococcus aureus
Source text: In fact, only 2-3 fold-higher concentrations of the compounds were needed to kill existing biofilms, in comparison to inhibiting bacterial colonization. […] Anti-biofilm potencies were all in the micromolar range and they were particularly significant for compound 22. […] The activity was also confirmed against S. aureus Newman strain. Potency values calculated for the S. aureus Newman (Table 3) were very similar to the values registered for S. aureus ATCC 25923.

E. coli XL1 blue = assay: Anti-biofilm activity against E. coli XL1 blue biofilms; assay type: cell-based, Escherichia coli; settings: tested at IC50 conc. measured against S. aureus ATCC 25923
Experimental: (§1) Four of the compounds were also tested against gram-negative E. coli biofilms as well as other Staphylococcal strains, at the corresponding IC50 values measured against S. aureus ATCC 25923 (Table 4). […] Nonetheless, all the compounds presented below were found active against S. epidermidis (ATCC 12228 and ATCC 35984) strains (Table 3).

[2] = test system: S. epidermidis ATCC 12228; assay: Anti-biofilm activity against S. epidermidis ATCC 12228; assay type: cell-based, Staphylococcus epidermidis; settings: tested at IC50 conc. measured against S. aureus ATCC 25923
Experimental: as §1

[3] = test system: S. epidermidis ATCC 35984; assay: Anti-biofilm activity against S. epidermidis ATCC 35984; assay type: cell-based, Staphylococcus epidermidis; settings: tested at IC50 conc. measured against S. aureus ATCC 25923
Experimental: as §1

HL cells = assay: Tolerability of mammalian cells, resazurin viability assay; assay type: cell-based, human; settings: concentrations of up to 100 μM; 24 hours exposure
Experimental: Viability values were measured in acute conditions (24 hours exposure) using the resazurin assay as in Karlsson et al, 2012 (Eur J Pharm Sci. 2012 Aug 30;47(1):190-205). […] The least tolerated molecule was 25, as only 23% (±5.9) of cells remained viable upon exposure to 100 μM. However, concentrations up to 30 μM caused no cytotoxicity (90.2% of viable cells, ±0.5).

[4] = test system: S. aureus ATCC 25923 biofilms; assay: Viable plate counts and Log Reduction of S. aureus ATCC 25923 biofilms; assay type: cell-based, Staphylococcus aureus; settings: 400 μM, viable plate counts
Experimental: The viability of S. aureus (ATCC 25923) biofilms left upon exposure to compounds 20, 21, 22 and 25 was determined using viable plate counts and calculating the Log Reduction (Log R) value. This procedure involves scrapping the biofilms off the substrate, disaggregating them by sonication and plating the resulting suspension in agar. The method is highly laborious but it is the gold standard for the quantification of anti-biofilm efficacy (Pitts et al. 2003). […] Of note, a log R value of 2 represents a reduction of 99% of the viable cells in the biofilms, and typically, a log R of 3 is considered a relevant indicator of the compound efficacy as an anti-biofilm agent.

[5] = Staphylococcus aureus, ATCC25923, 50% inhibition of biofilm viability, S. aureus ATCC 25923, read-out: Potency, IC50 Prior-to-biofilm formation
[6] = Staphylococcus aureus, ATCC25923, 50% inhibition of biofilm viability, S. aureus ATCC 25923, value in parentheses, read-out: Potency, IC50 Prior-to-biofilm formation
[7] = Staphylococcus aureus, ATCC25923, 24 h, measured 24 hours after adding to existing biofilms, S. aureus ATCC 25923, read-out: Potency, IC50 Post-biofilm formation
[8] = Staphylococcus aureus, ATCC25923, 24 h, measured 24 hours after adding to existing biofilms, S. aureus ATCC 25923, value in parentheses, read-out: Potency, IC50 Post-biofilm formation
[9] = Staphylococcus aureus, post-exposure, S. aureus ATCC 25923, read-out: % Inhibition 400 μM POST
[10] = Staphylococcus aureus, pre-exposure, S. aureus ATCC 25923, read-out: % Inhibition 400 μM PRE
[11] = Staphylococcus aureus, S. aureus Newman, read-out: Potency, IC50 Post-biofilm formation
[12] = Staphylococcus aureus, S. aureus Newman, read-out: Potency, IC50 Prior-to-biofilm formation
[13] = Staphylococcus aureus, S. aureus Newman, value in parentheses, read-out: Potency, IC50 Post-biofilm formation
[14] = Staphylococcus aureus, S. aureus Newman, value in parentheses, read-out: Potency, IC50 Prior-to-biofilm formation

| Compound | pIC50 [1, 5] | IC50 [1, 6] [µg/mL] | pIC50 [1, 7] | IC50 [1, 8] [µg/mL] | inhibition at 400 µM [1, 9] [%] | inhibition at 400 µM [1, 10] [%] | MIC (single-cell bacteria) [µg/mL] | pIC50 (S. aureus Newman; [11]) | pIC50 (S. aureus Newman; [12]) | IC50 (S. aureus Newman; [13]) [µg/mL] | IC50 (S. aureus Newman; [14]) [µg/mL] | also measured |
| --- | --- | --- | --- | --- | --- | --- | --- | --- | --- | --- | --- | --- |
| CC(C)c1ccc2c(c1)CC[C@H]1[C@](C)(C(=O)O)CCC[C@]21C [dehydroabietic acid] |  |  |  |  |  |  |  |  |  |  |  | prevention of S. aureus biofilm formation (S. aureus biofilm): low micromolar range |
| CC(C)c1ccc2c(c1)C(=O)C[C@H]1[C@](C)(C(=O)N[C@@H](CC3CCCCC3)C(=O)O)CCC[C@]21C [Compound 32, N-(7-Oxoabiet-8,11,13-trien-18-oyl) Cyclohexyl-L-alanine] | 4.22 | 28.3 | 3.84 | 67.9 | 102 | 102 | 46.8 (≈ 100 µM) | 4.03 | 4.20 | 43.5 | 29.7 |  |
| CC[C@H](NC(=O)[C@]1(C)CCC[C@]2(C)c3ccc(C(C)C)cc3CC[C@@H]12)C(=O)O [Compound 19, N-(abiet-8,11,13-trien-18-oyl) Ethyl-L-glycine] |  |  |  |  | 98.9 | 99.8 |  |  |  |  |  |  |
| CC(C)c1ccc2c(c1)CC[C@H]1[C@](C)(C(=O)N[C@H](Cc3ccccc3)C(=O)O)CCC[C@]21C [Compound 31, N-(Abiet-8,11,13-trien-18-oyl) D-phenylalanine] | 4.43 | 16.7 | 4.01 | 44 | 102 | 102 | 31.3 (≈ 69.9 µM) | 3.96 | 4.44 | 49.4 | 16.2 |  |
| CC(C)c1ccc2c(c1)CC[C@H]1[C@](C)(C(=O)N[C@H](Cc3ccc(O)cc3)C(=O)O)CCC[C@]21C [Compound 24, N-(Abiet-8,11,13-trien-18-oyl) D-tyrosine] |  |  |  |  | 26.3 | 102 |  |  |  |  |  |  |
| CC(C)C[C@H](NC(=O)[C@]1(C)CCC[C@]2(C)c3ccc(C(C)C)cc3CC[C@@H]12)C(=O)O [Compound 20, N-(Abiet-8,11,13-trien-18-oyl) L-leucine] | 4.21 | 25.7 | 3.92 | 50.2 | 99.8 | 100 | 33.1 (≈ 80 µM) | 3.87 | 4.29 | 55.6 | 21.4 | Inhibition percentage (±SD) Post-biofilm formation (E. coli XL1 blue): 39.9 (±4.6) %; Inhibition percentage (±SD) Prior-to-biofilm formation (E. coli XL1 blue): 14.2 (±4.5) %; Inhibition percentage (±SD) Post-biofilm formation [2]: 12.9 (±5.1) %; Inhibition percentage (±SD) Prior-to-biofilm formation [2]: 62.4 (±2.2) %; Inhibition percentage (±SD) Post-biofilm formation [3]: −12 (±6.0) %; Inhibition percentage (±SD) Prior-to-biofilm formation [3]: 53.4 (±4.9) %; cytotoxicity in HL cells (HL cells): did not cause statistically significant cytotoxicity; Log Reduction (average ±SD) [4]: 3.9 (±0.4) |
| CSCC[C@@H](NC(=O)[C@]1(C)CCC[C@]2(C)c3ccc(C(C)C)cc3CC[C@@H]12)C(=O)O [Compound 23, N-(Abiet-8,11,13-trien-18-oyl) D-methionine] |  |  |  |  | 92.6 | 102 |  |  |  |  |  |  |
| CC1(C)S[C@@H]2[C@H](NC(=O)Cc3ccccc3)C(=O)N2[C@H]1C(=O)O [Penicillin G, reference compound] |  |  |  |  |  |  |  |  |  |  |  | pIC50 ([1]; 50% inhibition of biofilm viability, S. aureus ATCC 25923, read-out: Potency, IC50 Prior-to-biofilm formation): 6.89; Potency, IC50 Prior-to-biofilm formation ([1]; 50% inhibition of biofilm viability, S. aureus ATCC 25923, value in parentheses): 0.048 µg/mL (≈ 0.144 µM); % inhibition, Post-biofilm formation ([1]; S. aureus ATCC 25923): 57% inhibition at 400 μM; Log Reduction (average ±SD) [4]: 1.0 (±0.1); pIC50 (S. aureus Newman; S. aureus Newman, read-out: Potency, IC50 Prior-to-biofilm formation): 6.57; Potency, IC50 Prior-to-biofilm formation (S. aureus Newman; S. aureus Newman, value in parentheses): 0.090 µg/mL (≈ 0.269 µM); % inhibition, Post-biofilm formation (S. aureus Newman; at 400 μM, S. aureus Newman): 73% inhibition at 400 μM |
| nordehydroabietylamine |  |  |  |  |  |  |  |  |  |  |  | prevention of S. aureus biofilm formation (S. aureus biofilm): low micromolar range |
| CN[C@H](CC(C)C)C(=O)N[C@H]1C(=O)N[C@@H](CC(N)=O)C(=O)N[C@H]2C(=O)N[C@H]3C(=O)N[C@H](C(=O)N[C@H](C(=O)O)c4cc(O)cc(O)c4-c4cc3ccc4O)[C@H](O)c3ccc(c(Cl)c3)Oc3cc2cc(c3O[C@@H]2O[C@H](CO)[C@@H](O)[C@H](O)[C@H]2O[C@H]2C[C@](C)(N)[C@H](O)[C@H](C)O2)Oc2ccc(cc2Cl)[C@H]1O [Vancomycin, reference compound] |  |  |  |  |  |  |  |  |  |  |  | IC50 ([1]; Staphylococcus aureus, ATCC25923, read-out: Potency, IC50 Prior-to-biofilm formation): 710 nM and 1.03 µg/mL; % inhibition, Post-biofilm formation ([1]; S. aureus ATCC 25923): 25% inhibition at 400 μM; inhibition at 400 µM (S. aureus Newman; Staphylococcus aureus, NEWMAN, read-out: % inhibition, Post-biofilm formation): 37.9%; IC50 (S. aureus Newman; Staphylococcus aureus, NEWMAN, read-out: Potency, IC50 Prior-to-biofilm formation): 1.3 µM and 1.88 µg/mL |
| CC(C)c1ccc2c(c1)CC[C@H]1[C@](C)(C(=O)N[C@@H](Cc3ccccc3)C(=O)O)CCC[C@]21C [Compound 21, N-(Abiet-8,11,13-trien-18-oyl) L-phenylalanine] | 4.45 | 15.9 | 3.96 | 48.7 | 99.6 | 100 | 22.4 (≈ 50 µM) | 4.08 | 4.44 | 37.5 | 16.1 | Inhibition percentage (±SD) Post-biofilm formation (E. coli XL1 blue): 30.4 (±6.1) %; Inhibition percentage (±SD) Prior-to-biofilm formation (E. coli XL1 blue): 7.4 (±2.7) %; Inhibition percentage (±SD) Post-biofilm formation [2]: 46.9 (±9.9) %; Inhibition percentage (±SD) Prior-to-biofilm formation [2]: 57.3 (±4.6) %; Inhibition percentage (±SD) Post-biofilm formation [3]: 44.4 (±8.4) %; Inhibition percentage (±SD) Prior-to-biofilm formation [3]: 58.1 (±4.1) %; cytotoxicity in HL cells (HL cells): did not cause statistically significant cytotoxicity; Log Reduction (average ±SD) [4]: 4.3 (±0.2) |
| CC(C)c1ccc2c(c1)CC[C@H]1[C@](C)(C(=O)N[C@H](C(=O)O)C(C)C)CCC[C@]21C [Compound 18, N-(Abiet-8,11,13-trien-18-oyl) L-valine] |  |  |  |  | 99.2 | 100 |  |  |  |  |  |  |
